Laboratory results taken from the supplement of paper PMC10702517.
± gives the standard deviation.

Assays:
[1] = chemical recovery by SPE of plasma after PDMS sampling; higher = better extraction; settings: pooled human plasma, extraction method: HLB SPE of plasma after PES
[2] = chemical recovery from spiked human plasma; higher = better extraction; settings: pooled human plasma
[3] = extraction method: SPE only (HLB 96-well), PES comparison experiment
[4] = extraction method: solvent precipitation (ACN + hexane)
[5] = extraction method: PES+SPE (3 d PDMS equilibration then HLB SPE)
[6] = extraction method: SPE only (HLB 96-well)
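Throughout, for chemical recovery by SPE of plasma after PDMS sampling: over 400 spiked chemicals quantified by LC-HRMS or GC-HRMS via internal standard calibration, recovery relative to spike mix added to unspiked plasma extract to correct matrix effects.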

| Structure (SMILES) | chemical recovery by SPE of plasma ([1]; equilibration time (d): 3) [%] | chemical recovery by SPE of plasma ([1]; equilibration time (d): 6) [%] | chemical recovery [2, 3] [%] | chemical recovery by SPE of plasma ([1]; equilibration time (d): 1) [%] | chemical recovery [2, 4] [%] | chemical recovery [2, 5] [%] | chemical recovery [2, 6] [%] |
| --- | --- | --- | --- | --- | --- | --- | --- |
| CCc1cccc(C)c1N(C(=O)CS(=O)(=O)O)[C@@H](C)C(=O)O | 28.5 ± 9.3 | 33.9 ± 4.1 | – | – | – | – | – |
| CCc1cccc(C)c1NC(=O)CS(=O)(=O)O | 40.4 ± 2 | 40.3 ± 9.3 | 42.9 ± 4.2 | 37.4 ± 8.2 | – | – | – |
| CO/N=C(/C(=O)O)c1ccccc1CO/N=C(\C)c1cccc(C(F)(F)F)c1 | 38.9 ± 4.6 | 33.6 ± 9.2 | 35.7 ± 5.6 | – | 78.6 ± 6.2 | – | – |
| NC(=O)c1c(Cl)c(Cl)cc(C(=O)O)c1Cl | 49.6 ± 1.4 | 45.4 ± 6.4 | 52.8 ± 4.5 | – | 65.4 ± 4.9 | 25.4 ± 4.9 | 30.6 ± 4.5 |
| CCCCn1cc[n+](C)c1 [1-Butyl-3-methyl-imidazolium] | 3.98 ± 3.6 | 4.03 ± 4.2 | 3.93 ± 4.5 | 2.28 ± 2 | – | – | 3.53 ± 1.7 |
| Oc1ccc(Cl)cc1Cl [2,4-Dichlorophenol] | 56.9 ± 4.3 | 50.9 ± 3.1 | 54.2 ± 5.9 | 49.3 ± 11 | – | 43.4 ± 3.3 | 40.3 ± 3.3 |
| O=[N+]([O-])c1ccc(O)c([N+](=O)[O-])c1 [2,4-Dinitrophenol] | 52 ± 3 | 50.9 ± 4.5 | 59.8 ± 4.8 | 49.4 ± 8.9 | 79.6 ± 6.8 | 52.7 ± 7.5 | 48.7 ± 6.6 |
| O=S(=O)(O)c1nc2ccccc2s1 [2-Benzothiazolesulfonic acid] | 42.3 ± 0.92 | 39.9 ± 5.4 | 46 ± 4.3 | 31.8 ± 4.8 | 88.4 ± 4.2 | – | 61.2 ± 20 |
| O=S(=O)(O)c1cccc2ccc(O)cc12 [2-Naphthol-8-sulfonic acid] | 47.9 ± 0.58 | 45 ± 6.4 | 44.7 ± 5.6 | – | 74.1 ± 3.9 | – | 61.3 ± 20 |
| Oc1ccccc1-c1ccccc1 [2-Phenylphenol] | 3.47 ± 0.42 | 3.11 ± 1.4 | – | 4.5 ± 4 | – | – | 19.9 ± 4.2 |
| Nc1ccc(Sc2ccc(N)cc2)cc1 [4,4'-Thiodianiline] | 10.6 ± 2.5 | 7.77 ± 1.4 | 16.5 ± 2 | 11.7 ± 2.8 | 42.1 ± 9.6 | 1.15 ± 0.088 | 8.97 ± 1.9 |
| Oc1ccc(Cl)cc1 [4-Chlorophenol] | 66.4 ± 6.9 | 59.4 ± 4.3 | 60.1 ± 5.1 | 60 ± 12 | 98 ± 9.7 | 33.9 ± 11 | 35.2 ± 7.2 |
| O=c1cc(O)c2ccccc2o1 [4-Hydroxycoumarin] | 64.3 ± 4.7 | 78 ± 15 | 13.2 ± 3.1 | 69.3 ± 16 | – | – | – |
| CCC(=C(c1ccc(O)cc1)c1ccc(OCCN(C)C)cc1)c1ccccc1 [4-Hydroxytamoxifen] | 7.29 ± 0.7 | 3.71 ± 1.9 | 42.6 ± 12 | 13.5 ± 3.3 | 62.1 ± 1.3 | 11.4 ± 2.5 | 46.8 ± 8.9 |
| O=[N+]([O-])c1ccc(O)cc1 [4-Nitrophenol] | 59.3 ± 2.9 | 55.1 ± 4.6 | 64.5 ± 4.6 | 57.4 ± 7.2 | 65.1 ± 6.7 | 48.9 ± 3 | 41.5 ± 6.3 |
| CC(C)(C)c1ccc(S(N)(=O)=O)cc1 [4-tert-Butylbenzenesulfonamide] | 17 ± 1.5 | 11.3 ± 1.4 | – | 11 ± 0.85 | – | – | – |
| C[C@H]1C[C@@H]2[C@H]([C@@H](O)C[C@@]3(C)[C@H]2CC[C@]3(O)C(=O)CO)[C@@]2(C)C=CC(=O)C=C12 [6alpha Methylprednisolone] | 57.1 ± 4.7 | 51.1 ± 6.5 | 53.6 ± 7.5 | 59.2 ± 5.8 | – | – | – |
| C=Cc1c2ccccc2cc2ccccc12 [9-Vinylanthracene] | 3.05 ± 5.3 | 2.42 ± 4.2 | – | 3.04 ± 5.3 | – | 42.05 ± 0.27 | 2.31 ± 0.48 |
| NC(=O)N1c2ccccc2C(O)C(O)c2ccccc21 (configuration not stated) [10,11-Dihydro-10,11-dihydroxycarbamazepine] | 69.9 ± 7.5 | – | 48.4 ± 4.8 | – | 71 ± 2.8 | 45.5 ± 5.2 | 44.9 ± 4.7 |
| C1=Cc2cccc3cccc1c23 [Acenaphthylene] | 10.5 ± 4.6 | 2.28 ± 8 | – | – | – | – | 3.51 ± 0.93 |
| CC1=CC(=O)NS(=O)(=O)O1 [Acesulfame] | 1.86 ± 0.99 | 8.53 ± 4.2 | – | – | 93.4 ± 4.7 | 11.2 ± 1.4 | 19.4 ± 5.8 |
| CC(=O)Nc1ccc(S(=O)(=O)Nc2cc(C)on2)cc1 [Acetyl-sulfamethoxazole] | 51.4 ± 3.5 | 49.3 ± 6.2 | 51.5 ± 4.3 | 51.7 ± 7.1 | 72 ± 3.1 | 42.7 ± 3.9 | 37.2 ± 3.4 |
| CCCSc1ccc2[nH]c(NC(=O)OC)nc2c1 [Albendazole] | 3.53 ± 0.36 | 2.28 ± 0.42 | 37.8 ± 5.9 | 5.86 ± 0.39 | 59.7 ± 5.1 | 3.61 ± 0.98 | 35.7 ± 3.7 |
| CCCCCCCCCCCCCC(=O)NCCC[N+](C)(C)CCCS(=O)(=O)[O-] [Amidosulfobetaine-14] | 26.1 ± 6.5 | 25.2 ± 4.2 | 36 ± 9.4 | 25.7 ± 5.3 | 74.8 ± 5 | – | – |
| COc1cc(OC)nc(NC(=O)NS(=O)(=O)N(C)S(C)(=O)=O)n1 [Amidosulfuron] | 49.1 ± 5.5 | 45.9 ± 6.6 | 49.1 ± 5.6 | 46.5 ± 7.7 | 70.2 ± 3.1 | 46.6 ± 16 | 41 ± 4.5 |
